The record followed here is PubChem BioAssay (NCI).

The structures appear in SMILES notation.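 Following 48 hours of exposure in 96-well plates, responses at five concentrations were used to interpolate endpoints linearly. Definition used: TGI = concentration required for complete inhibition of growth.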

Assay in all cases: NCI tumour cell line growth inhibition, 48 h
Test [1] deals with A549 NSCLC.
Test [2] has as its system CCRF-CEM leukemia.
Test [3] has as its system KM12 colon.
Test [4] relates to NCI-H226 lung.
Test [5] relates to NCI-H522 lung.
Test [6] relates to OVCAR-4 ovarian.
For test [7], the system named is OVCAR-8 ovarian.
The test system of test [8] is RXF 393 renal.
For test [9], the system named is SF-268 CNS.
Test [10] relates to SF-295 CNS.
The subject of test [11] is SN12C renal.
The subject of test [12] is SW-620 colon.
Test [13] has as its system SR leukemia.
Test [14] concerns UO-31 renal.

On to `COC(=N)c1ncn(Cc2ccccc2)c1N`, for which the TGI in test [1], in [2], in [3], in [4], in test [5] and in test [6] was greater than 100 µM throughout. Further, the TGI in [7], in test [8], in test [9], in test [10], in test [11] and in test [12] was greater than 100 µM each time.
With `CC(C)CC(NC=O)C(=O)NC(Cc1ccccc1)NC(=O)CNC(=O)C(C)NC(=O)OC(C)(C)C` (centres undefined), the TGI in [1], in [3], in [4], in test [5], in [6] and in [7] was greater than 100 µM throughout. In addition, the TGI in test [8], in [9], in test [10], in [11], in test [13] and in [12] was greater than 100 µM each time. In [14], this compound registered a TGI greater than 100 µM.
As to `O=C(Nc1ccc(Cl)cc1Cl)c1cc2nc3ccccc3c(=O)n2c2ccccc12`, the TGI in [1], in test [2], in test [3], in test [5], in [7] and in test [8] was greater than 10 µM throughout. Moreover, the TGI in test [9], in test [10], in test [12] and in test [14] was greater than 10 µM in each case.
Consider `CC12OC3(C(O)C1O)C(C(=O)O[C@H]3CO[Si](C)(C)C(C)(C)C)C2S(=O)(=O)c1ccccc1` (some centres undefined), for which the TGI in test [1] was greater than 100 µM; in [3], greater than 100 µM; in test [4] it was 58.3 µM; in test [5], 47.2 µM; in test [6], 95 µM; in test [7] it was greater than 100 µM. Further, the TGI in test [9] was greater than 100 µM; in [10], greater than 100 µM; in [11], greater than 100 µM; in test [13] it was 87.5 µM; in test [12], greater than 100 µM; in [14] it was greater than 100 µM.
For the compound `CN1C(=O)CN=C(c2ccccc2F)c2cc(N=C=S)ccc21`, the TGI in [1] was greater than 100 µM; in [2] it was greater than 100 µM; in test [3] it was greater than 100 µM; in test [5], 45.2 µM; in test [6], greater than 100 µM; in test [7] it was greater than 100 µM. Further, the TGI was 87.7 µM in [8]; greater than 100 µM in test [9]; greater than 100 µM in test [10]; greater than 100 µM in test [11]; greater than 100 µM in test [12]; greater than 100 µM in test [14].
`O=C1CCCC(=O)N1n1c(Cc2ccc(Cl)cc2)n[nH]c1=O`: the TGI in test [1], in test [2], in [3], in [4], in [5] and in test [6] was greater than 100 µM in each case. For the same compound, the TGI in test [7], in [8], in [9], in test [10], in [11] and in test [12] was greater than 100 µM in each case. The TGI in [14] is greater than 100 µM.
`C[C@]12CC[C@H]3[C@@H](CC=C4C[C@@H](O)CC[C@@]43C)[C@@H]1C[C@H](N1CCOCC1)[C@@H]2O`: the TGI in test [1], in test [2], in test [3], in [4], in [5] and in test [6] was greater than 100 µM throughout. For the same compound, the TGI in [7], in [8], in test [9], in test [10], in [11] and in [12] was greater than 100 µM each time. Further, in [14], the TGI is greater than 100 µM.
In the case of `COc1ccc(N2C(=O)C(C#N)=C(SC)C(C#N)C2=O)cc1` (centres undefined), the TGI in test [1], in test [2], in test [3], in test [4], in test [5] and in test [6] was greater than 100 µM in each case. Also, the TGI in test [7], in test [8], in test [9], in test [10], in test [11] and in test [12] was greater than 100 µM in each case.
`O=C1NC(=O)/C(=C/c2ccc(S(=O)(=O)N/N=C/c3ccccc3)cc2)N1`: the TGI in [1], in [2], in [3], in test [4], in [6] and in test [7] was greater than 100 µM in each case. Also, the TGI in test [8], in [9], in test [10], in test [11], in test [12] and in test [14] was greater than 100 µM throughout.
As to `Cc1ccccc1C(=O)NC(O)(C(F)(F)F)C(F)(F)F`, the TGI in [1], in test [2], in test [3], in test [4], in [5] and in test [6] was greater than 100 µM in each case. Also, the TGI in [7], in [8], in test [9], in [10], in test [11] and in [12] was greater than 100 µM throughout. Besides, the TGI in test [14] was greater than 100 µM.
As for `OC1=CN=C(C2CC2)Oc2ccccc21`, the TGI in test [1], in test [2], in test [3], in [4], in [6] and in test [7] was greater than 100 µM throughout. For the same compound, the TGI in test [8], in test [9], in test [10], in [11], in [12] and in [14] was greater than 100 µM each time.
